Patent publication US20220267268A1, “NEW TRICYCLIC 5-HT2 ANTAGONISTS” (Anamar AB, priority 2019, published 2022)
Where a name gives a salt, the structure may show the parent alone. Marks after values point to notes of the source that are not given here.

Legend:
5-HT2B receptor [1] = target: T1, 5-HT2B receptor (Homo sapiens, UniProt P41595); assay: 5-HT2B receptor agonism, IP-1 accumulation in CHO-K1 cells without prior 5-HT stimulation; assay type: cell-based; settings: % of IP-1 accumulation induced by 5-HT (1 uM); for 5-HT2B receptor agonism (% of positive control) 1 nM: 1 nM compound; for 5-HT2B receptor agonism (% of positive control) 10 nM: 10 nM compound; for 5-HT2B receptor agonism (% of positive control) 100 nM: 100 nM compound; for 5-HT2B receptor agonism (% of positive control) 1000 nM: 1000 nM compound
T1 construct: host or cells: CHO-K1
T1 sequence (P41595 whole entry): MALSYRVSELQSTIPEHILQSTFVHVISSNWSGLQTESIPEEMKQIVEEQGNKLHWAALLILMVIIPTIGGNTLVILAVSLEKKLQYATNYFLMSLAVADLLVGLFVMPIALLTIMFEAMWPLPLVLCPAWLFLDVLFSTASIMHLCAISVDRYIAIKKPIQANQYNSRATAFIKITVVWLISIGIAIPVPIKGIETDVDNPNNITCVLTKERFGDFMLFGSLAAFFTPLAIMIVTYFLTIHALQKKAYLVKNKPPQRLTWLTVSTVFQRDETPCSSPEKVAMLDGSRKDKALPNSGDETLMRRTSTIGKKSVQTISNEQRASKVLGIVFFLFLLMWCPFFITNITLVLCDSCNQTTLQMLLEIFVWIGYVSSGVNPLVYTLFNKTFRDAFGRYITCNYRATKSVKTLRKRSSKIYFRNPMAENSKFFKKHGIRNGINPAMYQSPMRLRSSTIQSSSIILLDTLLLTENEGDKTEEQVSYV
Protocol: (§1) 5-HT2B receptor antagonism (performed at Eurofins Panlabs Taiwan, Ltd.) was determined in CHO-K1 cells expressing human receptor protein as inhibition of 5-HT (5 nM) stimulated IP-1 accumulation measured by HTRF quantitation. SB 206553 was used as a standard reference compound. The antagonistic response is expressed as % inhibition of the 5-HT induced effect, see Table 2.
5-HT2B receptor agonism (performed at Eurofins Panlabs Taiwan, Ltd.) was determined in the same model as described above in Example 50 without prior stimulation with 5-HT. The agonistic response is expressed as % of the IP-1 accumulation induced by 5-HT (1 uM) stimulation, see Table 3.

5-HT2B receptor [2] = target: T1, 5-HT2B receptor; assay: 5-HT2B receptor antagonism, inhibition of 5-HT stimulated IP-1 accumulation (HTRF) in CHO-K1 cells; assay type: cell-based; settings: 5-HT (5 nM) stimulated IP-1 accumulation; for inhibition at 0.001 µM: 1 nM compound; for inhibition at 0.01 µM: 10 nM compound; for inhibition at 0.1 µM: 100 nM compound; for inhibition at 1 µM: 1000 nM compound
Protocol: as §1

5-HT2B receptor [3] = target: T1, 5-HT2B receptor; assay: 5-HT2B receptor binding, ligand displacement assay with 3H-LSD radioligand; settings: human receptor in CHO-K1; for inhibition at 0.001 µM: 1 nM compound; for inhibition at 0.01 µM: 10 nM compound; for inhibition at 0.1 µM: 100 nM compound
Protocol: 5-HT2B receptor binding (performed at Eurofins Panlabs Taiwan, Ltd.) to human receptor protein expressed in CHO-K1 cells was determined in a ligand displacement assay using ^3H-lysergic acid diethylamide (LSD) as radioligand and ketanserine as a standard reference compound, or alternatively*, with ^3H-mesulergine and SB 206553 as reference. Data is presented as % displacement of radioligand at indicated compound concentrations, see Table 1.

[4] = tested on: bleomycin-induced dermal fibrosis; assay: Anti-fibrotic effects in bleomycin-induced dermal fibrosis in mice; assay type: in vivo, female DBA/2 mice
Protocol: Skin fibrosis was induced in female DBA/2 mice by subcutaneous injections of bleomycin (2.5 mg/kg) every other day for three or six weeks.
For preventive treatment, mice were challenged with bleomycin for three weeks and treatment by oral gavage was established simultaneously. For therapeutic treatment, fibrosis was first induced by injections of bleomycin for three weeks in the absence of treatment. Thereafter, treatment by oral gavage was initiated, while injections of bleomycin were continued. The outcome was analyzed three or six weeks after the first injection of bleomycin for preventive and therapeutic treatment, respectively. Mice injected with 0.9% NaCl, the vehicle of bleomycin, served as non-fibrotic controls and mice treated with ddH2O (the vehicle for test compound) by oral gavage served as negative controls.
Groups 1-8 of n=8 Female DBA/2 Mice: Preventive dosing 3 weeks in total 1. 0.9% NaCl (injection) and ddH2O (orally) week 1-3. 2. Bleomycin (injection) and ddH2O (orally) week 1-3. 3. Bleomycin (injection) and test compound (10 mg/kg, qd, orally) week 1-3. Therapeutic dosing 6 weeks in total 4. 0.9% NaCl (injection) week 1-6 and ddH2O (orally) week 4-6. 5. Bleomycin (injection) week 1-3, 0.9% NaCl (injection) week 4-6, and ddH2O (orally) week 4-6. 6. Bleomycin (injection) week 1-6 and ddH2O (orally) week 4-6. 7. Bleomycin (injection) week 1-6 and test compound (1 mg/kg, qd, orally) week 4-6. 8. Bleomycin (injection) week 1-6 and test compound (10 mg/kg, qd, orally) week 4-6.
Defined areas of the skin of the upper back were excised, subsequently fixed in 4% formalin for 6 h and embedded in paraffin. Skin sections were cut and stained with hematoxylin/eosin. The dermal thickness (measured as distance between the epidermal-dermal border to the dermal-subcutaneous border in arbitrary units) was quantified in 4 different sections from different sites with 2 measurements per section. The analysis was performed in a blinded manner.
Myofibroblasts are characterized by the expression of α-smooth muscle actin (αSMA). Fibroblasts positive for αSMA were detected in paraffin-embedded slides from the upper back by incubation with monoclonal anti-αSMA antibodies (clone 1A4, Sigma-Aldrich, Steinheim, Germany). The expression was visualized with horseradish peroxidase labeled secondary antibodies and 3,3-diaminobenzidine tetrahydrochloride (DAB) (Sigma-Aldrich). Monoclonal mouse IgG antibodies (Calbiochem, San Diego, Calif., USA) were used for controls. The analysis was performed by a blinded reviewer evaluating the myofibroblasts in four sections per sample.
The amount of collagen protein (ug/mL) in skin samples was determined via hydroxyproline assay. After digestion of full skin thickness punch biopsies (Ø 3 mm) derived from the upper back in 6 M HCl for three hours at 120° C., the pH of the samples was adjusted to 6 with 6 M NaOH. Afterwards, 0.06 M chloramine T was added to each sample and incubated for 20 m at room temperature. Next, 3.15 M perchloric acid and 20% p-dimethylaminobenzaldehyde were added and samples were incubated for additional 20 min at 60° C. The absorbance was determined at 557 nm with a Spectra MAX 190 microplate spectrophotometer using a standard curve generated with purified type I collagen (Sigma-Aldrich).
All data are presented as group mean values (±SEM), and differences between the groups were tested for their statistical significance by Mann-Whitney U non-parametric test for non-related samples. P-values less than 0.05 were considered significant.

[5] = Preventive dosing, Group 3: 10 mg/kg qd orally week 1-3, mean (SEM), p < 0.001 vs group 2
[6] = Therapeutic dosing, Group 7: 1 mg/kg qd orally week 4-6, mean (SEM)
[7] = Therapeutic dosing, Group 8: 10 mg/kg qd orally week 4-6, mean (SEM)
[8] = preventive and therapeutic treatment, compared to vehicle-treated, bleomycin-challenged mice

CC1CN(C(=N)N)c2ccc3c(Br)cccc3c21.Cl (stereo not drawn) [Example 2, 6-Bromo-1-methyl-1,2-dihydro-3H-benzo[e]indole-3-carboximidamide hydrochloride]
5-HT2B receptor agonism (% of positive control) 1 nM (5-HT2B receptor [1]): −3% | 5-HT2B receptor agonism (% of positive control) 10 nM (5-HT2B receptor [1]): −5% | 5-HT2B receptor agonism (% of positive control) 100 nM (5-HT2B receptor [1]): −3% | 5-HT2B receptor agonism (% of positive control) 1000 nM (5-HT2B receptor [1]): −4% | inhibition at 0.001 µM (5-HT2B receptor [2]): 56% | inhibition at 0.01 µM (5-HT2B receptor [2]): 91% | inhibition at 0.1 µM (5-HT2B receptor [2]): 95% | inhibition at 1 µM (5-HT2B receptor [2]): 96% | inhibition at 0.001 µM (5-HT2B receptor [3]): 72% | inhibition at 0.01 µM (5-HT2B receptor [3]): 96% | inhibition at 0.1 µM (5-HT2B receptor [3]): 98%

CC1CN(C(=N)N)c2ccc3ccccc3c21.Cl (stereo not drawn) [Example 3, 1-Methyl-1,2-dihydro-3H-benzo[e]indole-3-carboximidamide hydrochloride]
5-HT2B receptor agonism (% of positive control) 1 nM (5-HT2B receptor [1]): −3% | 5-HT2B receptor agonism (% of positive control) 10 nM (5-HT2B receptor [1]): 0% | 5-HT2B receptor agonism (% of positive control) 100 nM (5-HT2B receptor [1]): −3% | Dermal thickness (arbitrary units) [4, 5]: 3.52 (0.05) *** arbitrary units | Hydroxyproline (ug/mL) [4, 5]: 3.44 (0.11) *** ug/mL | Myofibroblast counts [4, 5]: 1.31 (0.06) *** | Dermal thickness (arbitrary units) [4, 6]: 3.96 (0.06) ^++### arbitrary units | Hydroxyproline (ug/mL) [4, 6]: 3.85 (0.12) ^## ug/mL | Myofibroblast counts [4, 6]: 1.72 (0.07) ^+### | Dermal thickness (arbitrary units) [4, 7]: 3.56 (0.04) ^+++### arbitrary units | Hydroxyproline (ug/mL) [4, 7]: 3.58 (0.09) ^++### ug/mL | Myofibroblast counts [4, 7]: 1.41 (0.07) ^++### | Myofibroblast counts [4, 8]: significantly reduced | hydroxyproline content [4, 8]: significantly reduced | hypodermal thickening [4, 8]: significantly reduced | antifibrotic effect, 10 mg/kg/qd compared to 1 mg/kg/qd ([4]; therapeutic regimen): more potent antifibrotic effect | inhibition at 0.001 µM (5-HT2B receptor [2]): 2% | inhibition at 0.01 µM (5-HT2B receptor [2]): 50% | inhibition at 0.1 µM (5-HT2B receptor [2]): 100% | inhibition at 0.01 µM (5-HT2B receptor [3]): 63% | inhibition at 0.1 µM (5-HT2B receptor [3]): 90%

CC1CN(C(=N)N)c2ccc3c(Cl)cccc3c21.Cl (stereo not drawn) [Example 11, 6-Chloro-1-methyl-1,2-dihydro-3H-benzo[e]indole-3-carboximidamide hydrochloride]
5-HT2B receptor agonism (% of positive control) 1 nM (5-HT2B receptor [1]): 1% | 5-HT2B receptor agonism (% of positive control) 10 nM (5-HT2B receptor [1]): 5% | 5-HT2B receptor agonism (% of positive control) 100 nM (5-HT2B receptor [1]): −2% | 5-HT2B receptor agonism (% of positive control) 1000 nM (5-HT2B receptor [1]): 1% | inhibition at 0.001 µM (5-HT2B receptor [2]): 53% | inhibition at 0.01 µM (5-HT2B receptor [2]): 89% | inhibition at 0.1 µM (5-HT2B receptor [2]): 99% | inhibition at 1 µM (5-HT2B receptor [2]): 96% | inhibition at 0.001 µM (5-HT2B receptor [3]): 63% | inhibition at 0.01 µM (5-HT2B receptor [3]): 97% | inhibition at 0.1 µM (5-HT2B receptor [3]): 103%

CC1CN(C(=N)N)c2ccc3c(F)cccc3c21 (stereo not drawn) [Example 33, 6-Fluoro-1-methyl-1,2-dihydro-3H-benzo[e]indole-3-carboximidamide 2,2,2-trifluoroacetic acid salt]
5-HT2B receptor agonism (% of positive control) 1 nM (5-HT2B receptor [1]): −1% | 5-HT2B receptor agonism (% of positive control) 10 nM (5-HT2B receptor [1]): 4% | 5-HT2B receptor agonism (% of positive control) 100 nM (5-HT2B receptor [1]): 26% | 5-HT2B receptor agonism (% of positive control) 1000 nM (5-HT2B receptor [1]): −1% | inhibition at 0.001 µM (5-HT2B receptor [2]): 29% | inhibition at 0.01 µM (5-HT2B receptor [2]): 81% | inhibition at 0.1 µM (5-HT2B receptor [2]): 99% | inhibition at 1 µM (5-HT2B receptor [2]): 100% | inhibition at 0.001 µM (5-HT2B receptor [3]): 28% | inhibition at 0.01 µM (5-HT2B receptor [3]): 82% | inhibition at 0.1 µM (5-HT2B receptor [3]): 101%
